# Laboratory results taken from ChEMBL document CHEMBL1201862, “PubChem BioAssay data set” (2004).
#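 Test compounds were applied to cells in 96-well plates for 48 hours at 5 doses. GI50 is the concentration that inhibits growth by half.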 Activity calls are given as the source filed them. Rule as the data show it: active = GI50 up to about 1.1 µM and inactive = higher.
# Columns and labels:
# Assay in all cases: NCI anticancer screen, dose series, 48 h
# A549 = system: A549
# SW-620 = system: SW-620
# CAKI-1 = system: CAKI-1
# HCT-15 = system: HCT-15
# T47D = system: T47D
# RXF 393 = system: RXF 393
# OVCAR-5 = system: OVCAR-5
# HCC 2998 = system: HCC 2998
# ACHN = system: ACHN
# MDA-MB-231 = system: MDA-MB-231
# SK-MEL-5 = system: SK-MEL-5
# COLO 205 = system: COLO 205
# HOP-62 = system: HOP-62
# PC-3 = system: PC-3
# MCF7 = system: MCF7
# KM12 = system: KM12
# MDA-N = system: MDA-N
# HCT-116 = system: HCT-116
# MOLT-4 = system: MOLT-4
# MDA-MB-435 = system: MDA-MB-435
# U-251 = system: U-251
# HOP-92 = system: HOP-92
# SK-OV-3 = system: SK-OV-3
# SF-539 = system: SF-539
# CCRF-CEM = system: CCRF-CEM
# SF-268 = system: SF-268
# BT-549 = system: BT-549
# HT-29 = system: HT-29
# HL-60 = system: HL-60
# NCI-H226 = system: NCI-H226
# EKVX = system: EKVX
# OVCAR-3 = system: OVCAR-3
# K562 = system: K562
# NCI-H522 = system: NCI-H522
# SR = system: SR
# TK-10 = system: TK-10
# RPMI-8226 = system: RPMI-8226
# NCI-H460 = system: NCI-H460
# Malme-3M = system: Malme-3M
# SK-MEL-2 = system: SK-MEL-2
# LOX IMVI = system: LOX IMVI
# A498 = system: A498
# SN12C = system: SN12C
# SK-MEL-28 = system: SK-MEL-28
# SNB-19 = system: SNB-19
# SF-295 = system: SF-295
# NCI-H23 = system: NCI-H23
# UO-31 = system: UO-31
# SNB-75 = system: SNB-75
# UACC-62 = system: UACC-62
# M14 = system: M14
# IGROV-1 = system: IGROV-1
# Hs-578T = system: Hs-578T
# UACC-257 = system: UACC-257
# DU-145 = system: DU-145
structure (smiles),measurement,setting,value
COc1ccc(-c2c(-c3ccccc3)c(C)nc3nc(SC)nc(SC)c23)cc1OC,GI50,A549,1.4 µM (inactive)
same,GI50,SW-620,6.32 µM (inactive)
same,GI50,CAKI-1,0.764 µM (active)
same,GI50,HCT-15,8.2 µM
same,GI50,T47D,13 µM (inactive)
same,GI50,RXF 393,17.1 µM (inactive)
same,GI50,OVCAR-5,12.4 µM (inactive)
same,GI50,HCC 2998,25 µM (inactive)
same,GI50,ACHN,19.9 µM (inactive)
same,GI50,MDA-MB-231,20.9 µM (inactive)
same,GI50,SK-MEL-5,4.76 µM (inactive)
same,GI50,COLO 205,11.6 µM (inactive)
same,GI50,HOP-62,9.08 µM (inactive)
same,GI50,PC-3,4.29 µM (inactive)
same,GI50,MCF7,10.6 µM (inactive)
same,GI50,KM12,18.1 µM (inactive)
same,GI50,MDA-N,8.99 µM (inactive)
same,GI50,HCT-116,6.18 µM (inactive)
same,GI50,MOLT-4,5.81 µM (inactive)
same,GI50,MDA-MB-435,8.17 µM (inactive)
same,GI50,U-251,9.1 µM (inactive)
same,GI50,HOP-92,4.39 µM (inactive)
same,GI50,SK-OV-3,3.72 µM (inactive)
same,GI50,SF-539,5.2 µM (inactive)
same,GI50,CCRF-CEM,4.26 µM (inactive)
same,GI50,SF-268,24 µM (inactive)
same,GI50,BT-549,24.8 µM (inactive)
same,GI50,HT-29,5.71 µM (inactive)
same,GI50,HL-60,3.14 µM (inactive)
same,GI50,NCI-H226,17.3 µM (inactive)
same,GI50,EKVX,15.6 µM (inactive)
same,GI50,OVCAR-3,14.4 µM (inactive)
same,GI50,K562,4.54 µM (inactive)
same,GI50,NCI-H522,4.61 µM (inactive)
same,GI50,SR,0.565 µM (active)
same,GI50,TK-10,23.6 µM (inactive)
same,GI50,RPMI-8226,2.82 µM (inactive)
same,GI50,NCI-H460,2.12 µM (inactive)
same,GI50,Malme-3M,10.1 µM (inactive)
same,GI50,SK-MEL-2,17.1 µM (inactive)
same,GI50,LOX IMVI,11.4 µM (inactive)
same,GI50,A498,15.7 µM (inactive)
same,GI50,SN12C,7.4 µM (inactive)
same,GI50,SK-MEL-28,22.8 µM (inactive)
same,GI50,SNB-19,26.7 µM (inactive)
same,GI50,SF-295,7.55 µM (inactive)
same,GI50,NCI-H23,28.8 µM (inactive)
same,GI50,UO-31,3.79 µM (inactive)
same,GI50,SNB-75,16.1 µM (inactive)
same,GI50,UACC-62,11.3 µM (inactive)
same,GI50,M14,22.8 µM (inactive)
same,GI50,IGROV-1,30 µM (inactive)
same,GI50,Hs-578T,5.05 µM (inactive)
same,GI50,UACC-257,21.5 µM (inactive)
same,GI50,DU-145,15.5 µM (inactive)
